The test system of series [1] is AN3CA human endometrial cancer cells. As to the kind of experiment: Pharmacodynamics in subcutaneous xenograft tumor nude mouse model of AN3CA human endometrial cancer cells. It counts as in vivo, BALB/C nude mice. To be noted: for in vivo tumor inhibition effect (in words) / Relative tumor volume (mean ± SD) / Tumor volume (mm^3) (mean ± SD): AN3CA xenograft; for in vivo tumor inhibition effect (in words): 20 mg/kg i.g. qd; for Relative tumor volume (mean ± SD) / Tumor volume (mm^3) (mean ± SD) / Weight change rate (%) (mean ± SD) / TGI (%) / T/C (%): day 14, 20 mg/kg i.g. qd 14 d; for Weight change rate (%) (mean ± SD): body weight; for TGI (%): by tumor weight, ** p < 0.01 vs control; for T/C (%): relative tumor proliferation rate. As for the experimental part:
SPF-grade female BALB/C nude mice (from Changzhou Cavens Laboratory Animal Ltd.) were inoculated subcutaneously at the right side armpit with 5×10^6 AN3CA cells (sourec: Nanjing Cobioer Biosciences Co., Ltd.).
The day of grouping was determined as do, and the intragastric administration was started on the grouping day, and the administration volume was 10 mL/kg. The solvent was: D5W (5% glucose solution). The tumor volume was measured 2-3 times a week, meanwhile, the mice were weighed and the data were recorded; the general behavior of the mice was observed and recorded every day. After the experiment was completed, the tumors were removed, weighed and photographed.
Calculation formula for tumor volume: Tumor volume (mm^3)=½×(a×b^2) (where a represents long diameter and b represents short diameter).
Relative tumor proliferation rate (T/C %) refers to the percentage of the relative tumor volume of the treatment and control groups at a certain time point. The calculation formula is as follows: T/C %=TRTV/CRTV×100% (TRTv: mean relative tumor volume (RTV) for treatment group; CRTV: mean RTV for vehicle control group; RTV=TVt/TV0, where TV0 is the tumor volume at grouping, TVt is the tumor volume after treatment).
The calculation formula for weight change rate (WCR) (%) is: WCR=(Wtt−Wt0)/Wt0×100%, where Wt0 is the body weight of the animal at grouping (i.e., d0), Wtt is the body weight of the animal at each measurement.
All experimental results are expressed as mean±SD (mean±standard deviation). The relative tumor volume of the treatment group was compared with that of the control group for any significant difference by T tests, wherein p<0.01 indicates a very significant difference.
(In general: A xenograft is tissue or cells of one species grown in another, often human tumour cells in immunodeficient mice.)

Series [2] has as its system LNcap cells. As to the kind of experiment: Inhibitory effect on proliferation of LNcap cells (CCK-8, 72 h). It counts as cell-based. To be noted: Homo sapiens, LNcap cells, CCK-8, read-out: LNcap cells IC50. As to the method:
A dish of LNcap cells (human prostate cancer cells with PTEN deficiency) growing at log phase and in good conditions were taken and digested for 3 min by using 1 mL of pancreatin, then the mixture was added with 4 mL of complete culture medium to terminate digestion, and the cells were added to a centrifuge tube. 20 μL of cells were taken and counted, the required number of cells (mL) was pipetted and centrifuged at 1200 rpm for 5 min, the supernatant was discarded, and an appropriate amount of plating medium (RPMI medium+5% FBS+1% sodium pyruvate+1% glutamine) was added to adjust the cell density to 3×10^4 cells/mL. The cells were seeded on a 96-well plate at 100 μL/well using a multi-channel pipette and cultured in a cell incubator at 37° C., 5% CO2 and saturated humidity. After incubation overnight, compounds were loaded using a nanoliter pipettor, 2 duplicate wells were set for each concentration, and cells without compound were used as negative controls. After 72 h, CCK-8 was added at 10 μL/well for incubation for 4 h, then absorbance was measured at 450 nm with an Envision plate reader, and inhibition rate was calculated. Inhibition rate (%)=(mean value of negative control group−mean value of experimental group)/(mean value of negative control group−mean value of blank group)×100%. A dose-response curve was fitted by four-parameter analysis, with the logarithm of compound concentration as abscissa and inhibition rate as ordinate, so that IC50 was calculated.

Series [3] deals with T1, AKT1 (S473) (Homo sapiens, UniProt P31749).
T1 construct: endogenous in cells; host or cells: LNcap cells
T1 sequence (P31749 whole entry): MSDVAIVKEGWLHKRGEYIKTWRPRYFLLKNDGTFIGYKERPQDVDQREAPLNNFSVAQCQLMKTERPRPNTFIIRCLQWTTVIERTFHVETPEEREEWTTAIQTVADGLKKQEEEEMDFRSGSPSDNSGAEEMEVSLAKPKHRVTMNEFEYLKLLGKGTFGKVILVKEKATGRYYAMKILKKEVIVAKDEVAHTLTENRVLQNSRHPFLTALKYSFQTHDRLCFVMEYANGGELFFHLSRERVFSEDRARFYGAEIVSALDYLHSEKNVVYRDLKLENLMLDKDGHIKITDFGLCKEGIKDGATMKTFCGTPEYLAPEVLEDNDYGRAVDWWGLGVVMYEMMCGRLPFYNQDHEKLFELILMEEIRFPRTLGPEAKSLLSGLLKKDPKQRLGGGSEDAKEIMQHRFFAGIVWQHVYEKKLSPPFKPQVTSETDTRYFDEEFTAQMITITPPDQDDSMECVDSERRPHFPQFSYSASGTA
The series is described as follows: Inhibitory effect on phosphorylation of LNcap cells AKT1 (S473). It counts as cell-based. Conditions: 1 h incubation. As to the method:
LNcap cells AKT1 (S473) growing at log phase were taken, digested with 1 mL of pancreatin for 3 min, and added with 4 mL of complete medium to terminate digestion. The cells were added to a centrifuge tube. 20 μL of cells were taken and counted, the required number of cells (mL) was taken and centrifuged at 1200 rpm for 5 min, and a plating medium (2% FBS+phenol-free red 1640 base medium+1% sodium pyruvate+1% glutamine) was added to adjust the cell density to about 1×10E6 cells/mL. The cells were plated (96 wells) at the above cell density (100 μL/well), and cultured in a cell incubator at 37° C., 5% CO2 overnight; the next day, according to the plate distribution, the corresponding compound was sprayed using a nanoliter pipettor and incubated for 1 h at 37° C. in a cell incubator containing 5% CO2; the supernatant was discarded, and the plate was added with 40 μL of lysis buffer (1×) containing blocking buffer and incubated by shaking at room temperature for 30 min. After the mixture was mixed, 16 μL of lysate was transferred to another 384-well small-volume white plate. The plate was added with 4 μL of pre-mixed antibody (v/v) in assay buffer, covered, centrifuged to mix well, and incubated overnight at room temperature. The 665 nm/620 nm signal value was detected using a PE Envision multi-functional microplate reader, and IC50 was calculated by four-parameter fitting.

The nature of series [4]: Pharmacokinetic evaluation in rats. On the set-up: Cl: unit not given here. To be noted: SD rats; for bioavailability / AUC(0-inf) / AUC(0-t) / Cmax / Tmax / MRT last / Vd: rat, plasma; for bioavailability: oral, IG 10 mg/kg vs IV 1 mg/kg, read-out: Absolute bioavailability F %; for MRT last: read-out: MRT(0-t). It counts as in vivo. As to the method:
SD rats, weight 180-220 g, after adaption for 7 days, were randomly divided into 4 groups of 3 […], each group was intragastrically (IG) administered with compound 28 or compound 30 at a dose of 10 mg/kg, or intravenously (IV) administered with compound 28 or compound 30 at a dose of 1 mg/kg. The animals to be tested (SD rats) were fasted for 12 h before administration and food was provided 4 h after administration, and water was freely drunk before and after the experiment and during the experiment.
After intragastric administration, about 0.1 mL of blood was taken from eye sockets at 15 min, 30 min, 1 h, 2 h, 3 h, 4 h, 6 h, 8 h, 10 h, and 24 h; after intravenous injection, about 0.1 mL of blood was taken from eye sockets at 5 min, 10 min, 30 min, 1 h, 2 h, 4 h, 6 h, 8 h, 10 h, and 24 h; 3 rats were collected at each time point, whole blood was collected, placed in centrifuge tubes containing EDTA-K2, and stored at 4° C. within 1 h, and the plasma was separated off by centrifugation at 4° C. and 4000 rpm for 10 min. All the plasma samples were collected and immediately stored at −20° C. for testing. 30 μL of the plasma sample to be tested and a standard curve sample were pipetted and added with 300 μL of acetonitrile solution containing an internal standard (20 ng/mL diazepam), shaken and mixed well for 5 min, and centrifuged at 13,000 rpm for 10 min. 80 μL of supernatant was taken and diluted with 80 μL of ultrapure water. After being mixed well, 2 μL of the resulting sample was taken for liquid chromatography-mass determination, and a chromatogram was recorded.
Oral and intravenous exposure of the compound of the present application was evaluated by in vivo pharmacokinetic experiment in rats.

Read-outs that look alike come from different tables or passages of the source.

Usually IC50 stands for the concentration needed to halve the response being measured. A word on the bioavailability: it is dose-corrected exposure relative to a reference, in per cent. In general, AUC(0-inf) refers to the area under the concentration-time curve extrapolated to infinity. The term AUC(0-t) denotes exposure summed from dosing to a finite time, without extrapolation to infinity. What is called Cmax is the maximum level reached in the sampled fluid or tissue. The Tmax is the time from dosing to the highest level. What is called Vd is a proportionality between amount in the body and measured concentration, not a real space.

Turning to `CC(=O)N1CC2(C1)CN(c1cccc(-c3ccc4nc(-c5cccnc5N)n(-c5ccc(C6(N)CCC6)cc5)c4n3)c1F)C2` [Compound 28], in series [1], the “in vivo tumor inhibition effect (in words)” value is reported as “strong in vivo tumor inhibition effects”, the “Relative tumor volume (mean ± SD)” value was 10.5 ± 3.4, the “Tumor volume (mm^3) (mean ± SD)” value worked out at 1267 ± 249 mm^3 and the “Weight change rate (%) (mean ± SD)” value is 4.9 ± 2.7%. Moreover, in series [1], the “TGI (%)” value was determined as 53.2%** and the “T/C (%)” value is listed as 44.3%. For the same compound, in series [2], the IC50 turned out to be 3 nM. Besides, the midpoint of inhibition in series [3], the IC50, lay at 28 nM. Further, the t1/2z in series [4] (IG 10 mg/kg) was found to be 3.93 ± 1.46 h. In series [4] (IV 1 mg/kg), the Cl came out at 5.75 ± 0.146, the t1/2z is listed as 5.9 ± 2.11 h, the AUC(0-inf) came out at 174 ± 4.37 ng·h/mL and the AUC(0-t) is 145 ± 11.1 ng·h/mL. In addition, in series [4] (IV 1 mg/kg), the Vd amounted to 48.8 ± 16.8 L/kg and the MRT last was 2.12 ± 0.099 h. Also, in series [4], the bioavailability worked out at 25%. In addition, in series [4] (po, IG 10 mg/kg), the AUC(0-inf) is 372 ± 197 ng·h/mL, the AUC(0-t) is 362 ± 195 ng·h/mL, the Cmax worked out at 32.6 ± 12.4 ng/mL and the time of peak concentration (Tmax) turned out to be 4.67 ± 1.15 h. In series [4] (po, IG 10 mg/kg), the MRT last amounted to 7.38 ± 0.43 h.

On to `Nc1ncccc1-c1nc2ccc(-c3cccc(N4CCC(N5CCCC5=O)CC4)c3F)nc2n1-c1ccc(C2(N)CCC2)cc1` [Compound 30], for which, in series [1], the “in vivo tumor inhibition effect (in words)” value was “strong in vivo tumor inhibition effects”, the “Relative tumor volume (mean ± SD)” value came out at 9.7 ± 2.2, the “Tumor volume (mm^3) (mean ± SD)” value turned out to be 1242 ± 354 mm^3 and the “Weight change rate (%) (mean ± SD)” value is recorded as 2.3 ± 3.5%. In series [1], the “TGI (%)” value was 58.4%** and the “T/C (%)” value is recorded as 40.9%. For the same compound, in series [2], the IC50 was found to be 4.8 nM. For the same compound, half-maximal inhibition in series [3] (IC50) required 22 nM. In series [4] (IG 10 mg/kg), this compound registered a t1/2z of 5.43 ± 1.82 h. In series [4] (IV 1 mg/kg), the Cl was found to be 7.23 ± 0.496, the t1/2z amounted to 7.73 ± 0.440 h, the AUC(0-inf) stood at 139 ± 9.21 ng·h/mL and the AUC(0-t) worked out at 127 ± 9.69 ng·h/mL. Moreover, in series [4] (IV 1 mg/kg), the Vd was 80.8 ± 8.9 L/kg and the MRT last was found to be 5.57 ± 0.053 h. The bioavailability in series [4] is 35.5%. In series [4] (po, IG 10 mg/kg), the AUC(0-inf) came out at 383 ± 106 ng·h/mL, the AUC(0-t) is 358 ± 109 ng·h/mL, the Cmax stood at 31.2 ± 8.8 ng/mL and the Tmax came out at 4.67 ± 1.15 h. The MRT last in series [4] (po, IG 10 mg/kg) was 8.15 ± 0.73 h.

The record behind these values is patent US20230357242A1, “COMPOUND AS AKT KINASE INHIBITOR” (CHIA TAI TIANQING PHARMACEUTICAL GROUP CO., LTD., priority 2020, published 2023).
